The source made the active and inactive calls. The rule behind the calls is not given here.
What was measured:
K562 [1] = assay: Growth inhibition of human K562 cells at 10 uM after 24 hrs by MTT assay relative to control; format: functional; conditions: K562, 24 h, read-out: GI
K562 [2] = assay: Cytotoxicity against human K562 cells after 48 hrs by MTT assay; format: functional, cell-based; conditions: K562, 48 h
[3] = target: T1, c-Jun N-terminal kinase, JNK (Homo sapiens) (UniProt P45983+P53779+P45984); assay: Induction of JNK phosphorylation in human K562 cells assessed as ratio of phosphorylated JNK to beta-tubulin at 750 nM after 24 hrs by Western blot analysis (reference value: 1); format: cell-based
K562 [4] = assay: Cell cycle arrest in human K562 cells assessed as accumulation at G0/G1 phase at 2.5 uM after 24 hrs by propidium iodide staining based flow cytometry (reference value: 68.8%); format: functional
K562 [5] = assay: Cell cycle arrest in human K562 cells assessed as accumulation at sub G0/G1 phase at 2.5 uM after 24 hrs by propidium iodide staining based flow cytometry (reference value: 3.1%); format: functional
K562 [6] = assay: Induction of morphological changes in human K562 cells assessed as reduction in cell number at 0.75 to 2.5 uM after 24 hrs by light microscopic method; format: functional, cell-based
[7] = target: T1, c-Jun N-terminal kinase, JNK (Homo sapiens); assay: Induction of JNK phosphorylation in human K562 cells assessed as ratio of phosphorylated JNK to beta-tubulin at 2.5 uM after 48 hrs by Western blot analysis (reference value: 1); format: cell-based
MDA-MB-231 = assay: Cytotoxicity against human MDA-MB-231 cells after 24 hrs by MTT assay; format: functional, cell-based; conditions: MDA-MB-231, 24 h
K562 [8] = assay: Induction of morphological changes in human K562 cells assessed as reduction in cell volume at 0.75 to 2.5 uM after 24 hrs by light microscopic method; format: functional, cell-based
[9] = target: Serine-protein kinase ATM (Homo sapiens) (UniProt Q13315); assay: Activation of ATM phosphorylation in human K562 cells assessed as ratio of phosphorylated ATM to beta-tubulin level at 750 nM after 24 hrs by Western blot analysis (reference value: 0.2); format: cell-based
K562 [10] = assay: Induction of morphological changes in human K562 cells assessed as cellular fragmentation at 0.75 to 2.5 uM after 48 hrs by light microscopic method; format: functional, cell-based
[11] = target: Serine-protein kinase ATM (Homo sapiens) (UniProt Q13315); assay: Activation of ATM phosphorylation in human K562 cells assessed as ratio of phosphorylated ATM to beta-tubulin level at 750 nM after 48 hrs by Western blot analysis (reference value: 0.2); format: cell-based
K562 [12] = assay: Cell cycle arrest in human K562 cells assessed as accumulation at G0/G1 phase at 750 nM after 48 hrs by propidium iodide staining based flow cytometry (reference value: 67.4%); format: functional
[13] = target: Serine-protein kinase ATM (Homo sapiens) (UniProt Q13315); assay: Activation of ATM phosphorylation in human K562 cells assessed as ratio of phosphorylated H2AX at S139 to beta-tubulin level at 750 nM after 24 hrs by Western blot analysis (reference value: 1); format: cell-based
[14] = Selectivity index, ratio of IC50 for human 16HBE cells to IC50 for human MDA-MB-231 cells; format: functional
K562 [15] = assay: Cytotoxicity against human K562 cells after 24 hrs by MTT assay; format: functional, cell-based; conditions: K562, 24 h
HT-29 = assay: Cytotoxicity against human HT-29 cells after 24 hrs by MTT assay; format: functional, cell-based; conditions: HT-29, 24 h
K562 [16] = assay: Cell cycle arrest in human K562 cells assessed as accumulation at sub G0/G1 phase at 750 nM after 48 hrs by propidium iodide staining based flow cytometry (reference value: 1.1%); format: functional
K562 [17] = assay: Induction of reactive oxygen species generation in human K562 cells at 0.75 to 2.5 uM after 48 hrs by H2DCFDA staining based fluorescence microscopic analysis; format: functional, cell-based
[18] = target: Serine-protein kinase ATM (Homo sapiens) (UniProt Q13315); assay: Activation of ATM phosphorylation in human K562 cells assessed as ratio of phosphorylated ATM to beta-tubulin level at 2.5 uM after 24 hrs by Western blot analysis (reference value: 0.2); format: cell-based
K562 [19] = assay: Cell cycle arrest in human K562 cells assessed as accumulation at G0/G1 phase at 750 nM after 24 hrs by propidium iodide staining based flow cytometry (reference value: 68.8%); format: functional
16HBE14o- = assay: Cytotoxicity against human 16HBE cells after 24 hrs by MTT assay; format: cell-based
K562 [20] = assay: Induction of apoptosis in human K562 cells assessed as DNA fragmentation at 0.75 to 2.5 uM after 24 to 48 hrs by Hoechst 33342/DAPI staining based fluorescence microscopic analysis; format: functional, cell-based
K562 [21] = assay: Cell cycle arrest in human K562 cells assessed as accumulation at sub G0/G1 phase at 2.5 uM after 48 hrs by propidium iodide staining based flow cytometry (reference value: 1.1%); format: functional
K562 [22] = assay: Cell cycle arrest in human K562 cells assessed as accumulation at G2/M phase at 2.5 uM after 48 hrs by propidium iodide staining based flow cytometry (reference value: 17.7%); format: functional
K562 [23] = assay: Induction of apoptosis in human K562 cells assessed as ratio of procaspase-3 to beta actin level at 750 nM after 48 hrs by Western blot analysis (reference value: 0.9); format: functional
K562 [24] = assay: Cell cycle arrest in human K562 cells assessed as accumulation at G2/M phase at 750 nM after 24 hrs by propidium iodide staining based flow cytometry (reference value: 13.3%); format: functional
K562 [25] = assay: Cell cycle arrest in human K562 cells assessed as accumulation at G0/G1 phase at 2.5 uM after 48 hrs by propidium iodide staining based flow cytometry (reference value: 67.4%); format: functional
K562 [26] = assay: Induction of reactive oxygen species generation in human K562 cells at 0.75 to 2.5 uM after 5 to 24 hrs by H2DCFDA staining based fluorescence microscopic analysis; format: functional, cell-based
K562 [27] = assay: Induction of apoptosis in human K562 cells assessed as ratio of procaspase-3 to beta actin level at 750 nM after 24 hrs by Western blot analysis (reference value: 1); format: functional
[28] = Selectivity index, ratio of IC50 for human 16HBE cells to IC50 for human HT-29 cells; format: functional
[29] = target: Serine-protein kinase ATM (Homo sapiens) (UniProt Q13315); assay: Activation of ATM phosphorylation in human K562 cells assessed as ratio of phosphorylated H2AX at S139 to beta-tubulin level at 2.5 uM after 48 hrs by Western blot analysis (reference value: 0.8); format: cell-based
K562 [30] = assay: Cell cycle arrest in human K562 cells assessed as accumulation at sub G0/G1 phase at 750 nM after 24 hrs by propidium iodide staining based flow cytometry (reference value: 3.1%); format: functional
K562 [31] = assay: Induction of apoptosis in human K562 cells assessed as chromatin condensation at 0.75 to 2.5 uM after 24 to 48 hrs by Hoechst 33342/DAPI staining based fluorescence microscopic analysis; format: functional, cell-based
[32] = Selectivity index, ratio of IC50 for human 16HBE cells to IC50 for human K562 cells; format: functional
K562 [33] = assay: Induction of apoptosis in human K562 cells assessed as ratio of procaspase-3 to beta actin level at 2.5 uM after 48 hrs by Western blot analysis (reference value: 0.9); format: functional
[34] = target: Serine-protein kinase ATM (Homo sapiens) (UniProt Q13315); assay: Activation of ATM phosphorylation in human K562 cells assessed as ratio of phosphorylated H2AX at S139 to beta-tubulin level at 2.5 uM after 24 hrs by Western blot analysis (reference value: 1); format: cell-based
K562 [35] = assay: Cell cycle arrest in human K562 cells assessed as accumulation at G2/M phase at 750 nM after 48 hrs by propidium iodide staining based flow cytometry (reference value: 17.7%); format: functional
[36] = target: Serine-protein kinase ATM (Homo sapiens) (UniProt Q13315); assay: Activation of ATM phosphorylation in human K562 cells assessed as ratio of phosphorylated H2AX at S139 to beta-tubulin level at 750 nM after 48 hrs by Western blot analysis (reference value: 0.8); format: cell-based
[37] = target: T1, c-Jun N-terminal kinase, JNK (Homo sapiens); assay: Induction of JNK phosphorylation in human K562 cells assessed as ratio of phosphorylated JNK to beta-tubulin at 2.5 uM after 24 hrs by Western blot analysis (reference value: 1); format: cell-based
K562 [38] = assay: Cell cycle arrest in human K562 cells assessed as accumulation at G2/M phase at 2.5 uM after 24 hrs by propidium iodide staining based flow cytometry (reference value: 13.3%); format: functional
K562 [39] = assay: Induction of apoptosis in human K562 cells assessed as cell shrinkage at 0.75 to 2.5 uM after 24 to 48 hrs by Hoechst 33342/DAPI staining based fluorescence microscopic analysis; format: functional
K562 [40] = assay: Induction of morphological changes in human K562 cells assessed as appearance of shrunken cytoplasm at 0.75 to 2.5 uM after 24 hrs by light microscopic method; format: functional, cell-based
K562 [41] = assay: Induction of apoptosis in human K562 cells assessed as ratio of procaspase-3 to beta actin level at 2.5 uM after 24 hrs by Western blot analysis (reference value: 1); format: functional
[42] = target: Serine-protein kinase ATM (Homo sapiens) (UniProt Q13315); assay: Activation of ATM phosphorylation in human K562 cells assessed as ratio of phosphorylated ATM to beta-tubulin level at 2.5 uM after 48 hrs by Western blot analysis (reference value: 0.2); format: cell-based
[43] = target: T1, c-Jun N-terminal kinase, JNK (Homo sapiens); assay: Induction of JNK phosphorylation in human K562 cells assessed as ratio of phosphorylated JNK to beta-tubulin at 750 nM after 48 hrs by Western blot analysis (reference value: 1); format: cell-based

Chain of Serine-protein kinase ATM (Homo sapiens) (Q13315 whole entry, the tested form may be a part): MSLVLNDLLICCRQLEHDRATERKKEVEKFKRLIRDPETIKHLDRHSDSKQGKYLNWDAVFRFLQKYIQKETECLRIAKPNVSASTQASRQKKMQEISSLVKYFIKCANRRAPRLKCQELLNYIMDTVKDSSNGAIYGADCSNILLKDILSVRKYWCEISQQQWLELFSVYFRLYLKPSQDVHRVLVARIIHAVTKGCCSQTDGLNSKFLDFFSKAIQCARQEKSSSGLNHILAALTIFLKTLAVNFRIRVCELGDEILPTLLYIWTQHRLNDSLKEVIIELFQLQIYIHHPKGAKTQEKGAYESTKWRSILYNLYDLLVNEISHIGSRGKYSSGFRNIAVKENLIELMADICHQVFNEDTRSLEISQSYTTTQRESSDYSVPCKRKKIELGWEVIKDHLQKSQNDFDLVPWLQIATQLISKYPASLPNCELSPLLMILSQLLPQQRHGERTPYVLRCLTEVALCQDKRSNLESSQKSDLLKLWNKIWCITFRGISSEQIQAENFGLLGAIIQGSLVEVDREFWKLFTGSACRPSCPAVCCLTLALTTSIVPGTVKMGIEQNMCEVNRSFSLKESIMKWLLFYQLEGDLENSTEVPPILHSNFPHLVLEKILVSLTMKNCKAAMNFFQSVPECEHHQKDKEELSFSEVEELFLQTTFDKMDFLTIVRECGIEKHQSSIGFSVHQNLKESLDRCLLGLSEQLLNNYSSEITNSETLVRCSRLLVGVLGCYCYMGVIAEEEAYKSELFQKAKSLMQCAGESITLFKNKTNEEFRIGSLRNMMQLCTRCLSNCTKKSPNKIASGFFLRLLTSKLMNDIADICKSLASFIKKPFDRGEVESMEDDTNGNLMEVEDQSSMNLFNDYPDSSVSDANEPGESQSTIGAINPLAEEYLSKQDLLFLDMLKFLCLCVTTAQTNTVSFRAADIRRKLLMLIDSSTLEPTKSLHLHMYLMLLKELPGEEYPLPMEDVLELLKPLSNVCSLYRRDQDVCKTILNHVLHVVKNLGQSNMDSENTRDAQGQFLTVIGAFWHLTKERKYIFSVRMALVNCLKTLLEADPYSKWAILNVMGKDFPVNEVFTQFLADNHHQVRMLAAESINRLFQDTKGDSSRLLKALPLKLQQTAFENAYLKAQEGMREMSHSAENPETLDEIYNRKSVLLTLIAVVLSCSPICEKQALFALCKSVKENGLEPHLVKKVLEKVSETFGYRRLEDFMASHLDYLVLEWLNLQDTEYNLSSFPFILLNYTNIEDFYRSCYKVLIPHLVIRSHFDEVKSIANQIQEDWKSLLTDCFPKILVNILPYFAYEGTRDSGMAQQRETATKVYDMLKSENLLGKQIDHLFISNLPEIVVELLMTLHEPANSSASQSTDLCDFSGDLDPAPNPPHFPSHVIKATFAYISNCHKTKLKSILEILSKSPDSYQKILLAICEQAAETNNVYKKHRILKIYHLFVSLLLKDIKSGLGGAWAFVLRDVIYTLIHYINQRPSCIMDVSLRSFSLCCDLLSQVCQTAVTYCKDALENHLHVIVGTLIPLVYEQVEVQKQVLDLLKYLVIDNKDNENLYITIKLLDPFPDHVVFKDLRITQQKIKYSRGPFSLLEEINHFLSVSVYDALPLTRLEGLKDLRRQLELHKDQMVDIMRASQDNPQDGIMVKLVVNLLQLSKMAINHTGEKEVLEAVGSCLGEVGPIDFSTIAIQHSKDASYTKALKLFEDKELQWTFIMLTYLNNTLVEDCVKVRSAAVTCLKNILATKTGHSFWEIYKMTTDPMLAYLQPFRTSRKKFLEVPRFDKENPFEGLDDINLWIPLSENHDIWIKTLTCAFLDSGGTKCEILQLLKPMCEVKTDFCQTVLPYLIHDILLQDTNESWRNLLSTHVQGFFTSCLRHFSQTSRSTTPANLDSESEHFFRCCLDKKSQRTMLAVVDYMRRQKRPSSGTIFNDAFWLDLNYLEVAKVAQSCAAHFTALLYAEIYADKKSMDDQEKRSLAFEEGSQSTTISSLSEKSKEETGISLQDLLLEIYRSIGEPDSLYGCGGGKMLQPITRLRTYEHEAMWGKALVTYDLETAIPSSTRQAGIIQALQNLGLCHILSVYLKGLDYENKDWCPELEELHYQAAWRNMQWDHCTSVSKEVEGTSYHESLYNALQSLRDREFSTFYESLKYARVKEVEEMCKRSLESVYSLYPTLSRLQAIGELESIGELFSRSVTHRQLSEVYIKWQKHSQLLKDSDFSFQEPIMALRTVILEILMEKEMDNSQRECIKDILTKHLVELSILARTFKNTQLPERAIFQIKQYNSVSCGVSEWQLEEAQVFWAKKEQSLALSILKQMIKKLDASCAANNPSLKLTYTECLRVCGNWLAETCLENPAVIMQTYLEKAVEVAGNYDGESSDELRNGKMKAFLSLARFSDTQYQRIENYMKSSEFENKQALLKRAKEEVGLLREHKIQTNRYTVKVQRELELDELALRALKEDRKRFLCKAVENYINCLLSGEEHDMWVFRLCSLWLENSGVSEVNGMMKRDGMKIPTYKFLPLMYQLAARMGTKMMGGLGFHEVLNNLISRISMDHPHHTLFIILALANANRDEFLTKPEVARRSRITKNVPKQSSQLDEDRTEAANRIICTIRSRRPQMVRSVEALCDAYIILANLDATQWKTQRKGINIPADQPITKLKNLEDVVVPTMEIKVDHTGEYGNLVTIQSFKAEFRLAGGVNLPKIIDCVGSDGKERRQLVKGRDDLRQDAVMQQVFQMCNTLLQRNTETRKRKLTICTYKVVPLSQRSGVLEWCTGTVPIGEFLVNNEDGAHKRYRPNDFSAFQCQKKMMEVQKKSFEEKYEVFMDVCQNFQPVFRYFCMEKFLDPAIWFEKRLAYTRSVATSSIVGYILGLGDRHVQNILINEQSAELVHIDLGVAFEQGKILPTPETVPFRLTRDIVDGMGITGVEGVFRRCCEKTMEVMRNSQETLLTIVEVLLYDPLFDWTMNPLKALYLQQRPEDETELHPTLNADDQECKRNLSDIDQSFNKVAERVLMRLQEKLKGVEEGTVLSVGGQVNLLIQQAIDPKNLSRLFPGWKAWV

## NC(=O)c1cc(Cl)ccc1NC(=O)[C@@H]1C[C@H]1c1ccccc1
K562 [1]
  inhibition of growth at 10 µM: 24%

## NC(=O)c1cc(I)ccc1NC(=O)[C@@H]1C[C@H]1c1ccccc1
K562 [2]
  IC50: 10 µM
K562 [1]
  inhibition of growth at 10 µM: 25%

## Cc1ccc(NC(=O)c2ccc(-c3ccccc3)cc2)c(C(N)=O)c1
K562 [1]
  inhibition of growth at 10 µM: 39.7%

## COc1ccc(NC(=O)c2ccccc2-c2ccccc2)c(C(N)=O)c1
K562 [1]
  inhibition of growth at 10 µM: 37%

## COc1cc2c(c(OC)c1OC)-c1ccc(OC)c(=O)cc1[C@@H](NC(C)=O)CC2 [COLCHICINE]
K562 [1]
  inhibition of growth at 10 µM: 63.6%

## Cc1ccc(NC(=O)[C@@H]2C[C@H]2c2ccccc2)c(C(N)=O)c1
K562 [1]
  inhibition of growth at 10 µM: 15%

## COc1cc(NC(=O)c2ccc(-c3ccccc3)cc2)c(C(N)=O)cc1OC
K562 [1]
  inhibition of growth at 10 µM: 48%

## NC(=O)c1ccccc1NC(=O)c1ccc(-c2ccccc2)cc1
K562 [1]
  inhibition of growth at 10 µM: 21.6%

## NC(=O)c1cc(I)ccc1NC(=O)c1ccc(-c2ccccc2)cc1
K562 [2]
  IC50: 15 µM
K562 [1]
  inhibition of growth at 10 µM: 15%

## NC(=O)c1ccccc1NC(=O)[C@@H]1C[C@H]1c1ccccc1
K562 [1]
  inhibition of growth at 10 µM: < 10%

## NC(=O)c1ccccc1NC(=O)c1ccccc1-c1ccccc1
K562 [1]
  inhibition of growth at 10 µM: 44.6%

## NC(=O)c1cc(I)ccc1NC(=O)c1ccccc1-c1ccccc1
[3]
  Ratio: 0.8
K562 [4]
  Activity: 14.9%
K562 [5]
  Activity: 2.2%
K562 [6]
  Activity: Active
[7]
  Ratio: 1.4
MDA-MB-231
  IC50: 10 µM
K562 [8]
  Activity: Active
[9]
  Ratio: 1
K562 [10]
  Activity: Active
[11]
  Ratio: 0.5
K562 [2]
  IC50: 0.5 µM
K562 [12]
  Activity: 48.6%
[13]
  Ratio: 1.5
[14]
  Ratio IC50: 3
K562 [15]
  IC50: 0.5 µM
HT-29
  IC50: 10 µM
K562 [16]
  Activity: 4%
K562 [17]
  Activity: Active
[18]
  Ratio: 2.5
K562 [19]
  Activity: 54.9%
16HBE14o-
  IC50: 30 µM
K562 [20]
  Activity: Active
K562 [21]
  Activity: 26.2%
K562 [22]
  Activity: 13.4%
K562 [23]
  Ratio: 0.5
K562 [24]
  Activity: 37.1%
K562 [25]
  Activity: 50.5%
K562 [26]
  Activity: inactive
K562 [27]
  Ratio: 0.8
[28]
  Ratio IC50: 3
[29]
  Ratio: 1.6
K562 [30]
  Activity: 2.7%
K562 [31]
  Activity: Active
[32]
  Ratio IC50: 60
K562 [33]
  Ratio: 0.5
K562 [1]
  inhibition of growth at 10 µM: 85%
[34]
  Ratio: 2.1
K562 [35]
  Activity: 30.5%
[36]
  Ratio: 2.2
[37]
  Ratio: 1.2
K562 [38]
  Activity: 74.6%
K562 [39]
  Activity: Active
K562 [40]
  Activity: Active
K562 [41]
  Ratio: 0.8
[42]
  Ratio: 0.9
[43]
  Ratio: 1.2

## Cc1ccc(NC(=O)c2ccccc2-c2ccccc2)c(C(N)=O)c1
K562 [1]
  inhibition of growth at 10 µM: 48.9%

## NC(=O)c1cc(Cl)ccc1NC(=O)c1ccccc1-c1ccccc1
K562 [1]
  inhibition of growth at 10 µM: 47.3%

## COc1ccc(NC(=O)c2ccc(-c3ccccc3)cc2)c(C(N)=O)c1
K562 [1]
  inhibition of growth at 10 µM: 29.2%

## NC(=O)c1cc(Cl)ccc1NC(=O)c1ccc(-c2ccccc2)cc1
K562 [1]
  inhibition of growth at 10 µM: 45%

## COc1ccc(NC(=O)[C@@H]2C[C@H]2c2ccccc2)c(C(N)=O)c1
K562 [1]
  inhibition of growth at 10 µM: 26.7%

## COc1cc(NC(=O)[C@@H]2C[C@H]2c2ccccc2)c(C(N)=O)cc1OC
K562 [1]
  inhibition of growth at 10 µM: 26.7%

## COc1cc(NC(=O)c2ccccc2-c2ccccc2)c(C(N)=O)cc1OC
K562 [1]
  inhibition of growth at 10 µM: 46%

— ChEMBL document CHEMBL4024717, “Anthranilamide-based 2-phenylcyclopropane-1-carboxamides, 1,1'-biphenyl-4-carboxamides and 1,1'-biphenyl-2-carboxamides: Synthesis biological evaluation and mechanism of action” (Eur J Med Chem, 2017)
